Measurements from US9637453B2, “3-spirocyclic-6-hydroxamic acid tetralins as HDAC inhibitors” (Forma Therapeutics, Inc., priority 2015, dated 2017).

Legend:
[1] = biological target: T1, Full length human recombinant HDAC6 (Homo sapiens, UniProt Q9UBN7); experiment: In vitro histone deacetylase assay, enzymatic HDAC6 (electrophoretic mobility shift assay); type: biochemical; settings: 1 nM HDAC6; 2 μM peptide substrate FAM-RHKK(Ac)—NH2; 25° C.; 12 concentrations; read-out: HDAC6 Activity Range (IC50)
T1 construct: Full length human recombinant HDAC6 and HDAC11 proteins were expressed in baculoviral system
T1 sequence (Q9UBN7 1-1215): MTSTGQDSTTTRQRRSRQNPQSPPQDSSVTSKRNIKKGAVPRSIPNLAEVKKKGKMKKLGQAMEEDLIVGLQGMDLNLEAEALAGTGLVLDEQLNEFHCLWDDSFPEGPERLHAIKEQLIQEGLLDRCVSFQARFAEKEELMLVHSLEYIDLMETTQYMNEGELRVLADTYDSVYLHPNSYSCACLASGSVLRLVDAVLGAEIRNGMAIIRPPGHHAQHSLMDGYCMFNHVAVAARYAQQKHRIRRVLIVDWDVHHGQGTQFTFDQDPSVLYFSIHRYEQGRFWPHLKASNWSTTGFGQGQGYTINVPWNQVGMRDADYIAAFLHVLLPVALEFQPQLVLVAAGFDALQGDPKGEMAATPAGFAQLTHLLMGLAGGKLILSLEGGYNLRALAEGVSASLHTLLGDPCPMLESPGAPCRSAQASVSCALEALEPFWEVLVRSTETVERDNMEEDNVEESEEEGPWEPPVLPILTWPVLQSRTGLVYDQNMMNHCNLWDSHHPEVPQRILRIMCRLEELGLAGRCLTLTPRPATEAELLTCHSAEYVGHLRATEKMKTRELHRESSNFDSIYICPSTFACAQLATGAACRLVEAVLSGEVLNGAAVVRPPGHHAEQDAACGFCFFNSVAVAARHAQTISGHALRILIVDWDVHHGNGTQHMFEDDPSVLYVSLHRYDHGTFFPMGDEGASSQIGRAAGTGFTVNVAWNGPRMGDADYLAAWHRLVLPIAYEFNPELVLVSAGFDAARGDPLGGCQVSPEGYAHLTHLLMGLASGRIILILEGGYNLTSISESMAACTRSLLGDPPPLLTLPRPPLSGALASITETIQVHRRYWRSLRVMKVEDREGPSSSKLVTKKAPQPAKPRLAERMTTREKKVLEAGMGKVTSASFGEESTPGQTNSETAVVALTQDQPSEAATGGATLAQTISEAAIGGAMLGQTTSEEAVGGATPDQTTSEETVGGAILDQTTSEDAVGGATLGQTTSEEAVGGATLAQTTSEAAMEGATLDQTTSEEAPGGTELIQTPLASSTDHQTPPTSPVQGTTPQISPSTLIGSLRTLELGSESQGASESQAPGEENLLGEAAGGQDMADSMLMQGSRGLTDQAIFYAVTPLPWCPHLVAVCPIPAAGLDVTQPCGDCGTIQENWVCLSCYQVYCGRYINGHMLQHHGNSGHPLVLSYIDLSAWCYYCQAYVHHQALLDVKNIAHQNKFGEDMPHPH
Procedure: (§1) The enzymatic HDAC6 and HDAC11 assays were performed using electrophoretic mobility shift assay. Full length human recombinant HDAC6 and HDAC11 proteins were expressed in baculoviral system and purified by affinity chromatography. The enzymatic reactions were assembled in 384 well plates in a total volume of 25 μL in a reaction buffer composing: 100 mM HEPES, pH 7.5, 25 mM KCl, 0.1% bovine serum albumin, 0.01% Triton X-100, 1% DMSO (from compounds) 2 μM of the fluorescently labeled peptide substrate and enzyme. The enzymes were added at a final concentration of 1 nM for HDAC6, and 10 nM for HDAC11. The peptide substrate FAM-RHKK(Ac)—NH2 was used for HDAC6, and FAM-RHKK(tri-fluor-Ac)—NH2 for HDAC11. The compounds were tested at 12 concentrations spaced by 3× dilution intervals. Negative control samples (0%-inhibition in the absence of inhibitor) and positive control samples (100%-inhibition) were assembled in replicates of four in each assay plate. The reactions were incubated at 25° C. and quenched by the addition of 45 μL of termination buffer (100 mM HEPES, pH 7.5, 0.01% Triton X-100, 0.05% SDS).
(§2) The terminated assay plates were analyzed on LabChip® 3000 microfluidic electrophoresis instrument (Perkin Elmer/Caliper Life Sciences). The fluorescence intensity of the electrophoretically separated de-acetylated product and substrate peptide was measured. Activity in each sample was determined as the product to sum ratio (PSR): P/(S+P), where P is the peak height of the product peptide and S is the peak height of the substrate peptide. Percent inhibition (Pinh) is determined using following equation:
(§3) Pinh=(PSR0%−PSRinh)/(PSR0%−PSR100%)*100, where PSRinh is the product sum ratio in the presence of inhibitor, PSR0% is the average product sum ration in the absence of inhibitor and PSR100% is the average product sum ratio in 100%-inhibition control samples. The IC50 values of inhibitors were determined by fitting the %-inhibition curves with 4 parameter dose-response model using XLfit 4 software.
(§4) As set forth in Table-26 and Table-27, below, IC5o values are defined as follows: IC50≦0.1 μM (+++); IC50>0.1 μM and ≦0.5 μM (++); IC50>0.5 μM (+).

[2] = biological target: T2, Full length human recombinant HDAC11 (Homo sapiens, UniProt Q96DB2); experiment: In vitro histone deacetylase assay, enzymatic HDAC11 (electrophoretic mobility shift assay); type: biochemical; settings: 10 nM HDAC11; 2 μM peptide substrate FAM-RHKK(tri-fluor-Ac)—NH2; 25° C.; 12 concentrations; read-out: HDAC11 Activity Range (IC50)
T2 construct: Full length human recombinant HDAC6 and HDAC11 proteins were expressed in baculoviral system
T2 sequence (Q96DB2 1-347): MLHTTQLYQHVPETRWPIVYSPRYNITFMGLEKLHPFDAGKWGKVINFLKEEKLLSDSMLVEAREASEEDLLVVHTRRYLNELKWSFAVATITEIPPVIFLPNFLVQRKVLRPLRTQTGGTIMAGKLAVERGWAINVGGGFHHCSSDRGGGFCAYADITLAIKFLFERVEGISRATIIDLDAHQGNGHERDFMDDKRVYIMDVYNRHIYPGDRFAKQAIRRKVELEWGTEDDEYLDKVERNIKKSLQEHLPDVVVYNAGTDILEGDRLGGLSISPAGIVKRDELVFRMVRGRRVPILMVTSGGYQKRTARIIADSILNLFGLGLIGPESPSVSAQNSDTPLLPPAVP
Procedure: as §1, §2, §3, §4

IC50 [1] [nM]	IC50 [2] [nM]	SMILES
≤ 100	100 to 500	CC(C)CCN1CC[C@]2(CCc3ccc(C(=O)NO)cc3C2)C1=O [Compound I-82, (R)—N-hydroxy-1′-isopentyl-2′-oxo-3,4-dihydro-1H-spiro[naphthalene-2,3′-pyrrolidine]-7-carboxamide]
≤ 100	> 500	O=C(NO)c1ccc2c(c1)C[C@]1(CC2)CCN(c2ccccc2)C1 [Compound I-17, (R)—N-hydroxy-1′-phenyl-3,4-dihydro-1H-spiro[naphthalene-2,3′-pyrrolidine]-7-carboxamide]
≤ 100	> 500	O=C(NO)c1ccc2c(c1)C[C@]1(CC2)CC(=O)N(Cc2ccc(F)cc2)C1 [Compound I-128, (R)-1′-(4-fluorobenzyl)-N-hydroxy-5′-oxo-3,4-dihydro-1H-spiro[naphthalene-2,3′-pyrrolidine]-7-carboxamide]
≤ 100	≤ 100	O=C(NO)c1ccc2c(c1)C[C@@]1(CC2)CCN(Cc2ccc(C(F)(F)F)c(F)c2)C1=O [Compound I-124, (S)-1′-(3-fluoro-4-(trifluoromethyl)benzyl)-N-hydroxy-2′-oxo-3,4-dihydro-1H-spiro[naphthalene-2,3′-pyrrolidine]-7-carboxamide]
≤ 100	≤ 100	O=C(NO)c1ccc2c(c1)C[C@]1(CC2)CCN(Cc2cccc(F)c2)C1=O [Compound I-99, (R)-1′-(3-fluorobenzyl)-N-hydroxy-2′-oxo-3,4-dihydro-1H-spiro[naphthalene-2,3′-pyrrolidine]-7-carboxamide]
≤ 100	> 500	O=C(NO)c1ccc2c(c1)C[C@@]1(CC2)CCN(c2cnc3ccccc3c2)C1=O [Compound I-118, (S)—N-hydroxy-2′-oxo-1′-(quinolin-3-yl)-3,4-dihydro-1H-spiro[naphthalene-2,3′-pyrrolidine]-7-carboxamide]
≤ 100	> 500	CN(C)CCCN1CCC2(CCc3ccc(C(=O)NO)cc3C2)C1=O (stereo not shown) [Compound I-25, 1′-(3-(dimethylamino)propyl)-N-hydroxy-2′-oxo-3,4-dihydro-1H-spiro[naphthalene-2,3′-pyrrolidine]-7-carboxamide]
≤ 100	> 500	CC(C)CN1C[C@@]2(CCc3ccc(C(=O)NO)cc3C2)CC1=O [Compound I-137, (R)—N-hydroxy-1′-isobutyl-5′-oxo-3,4-dihydro-1H-spiro[naphthalene-2,3′-pyrrolidine]-7-carboxamide]
≤ 100	> 500	COc1ccc(C(=O)N2CCC3(CCc4ccc(C(=O)NO)cc4C3)C2)cc1 (stereo not shown) [Compound I-1, N-hydroxy-1′-(4-methoxybenzoyl)-3,4-dihydro-1H-spiro[naphthalene-2,3′-pyrrolidine]-7-carboxamide]
≤ 100	≤ 100	O=C(NO)c1ccc2c(c1)C[C@]1(CC2)CCN(Cc2ccc3ccccc3c2)C1=O [Compound I-104, (R)—N-hydroxy-1′-(naphthalen-2-ylmethyl)-2′-oxo-3,4-dihydro-1H-spiro[naphthalene-2,3′-pyrrolidine]-7-carboxamide]
≤ 100	> 500	COCCn1c(CN2CC[C@@]3(CCc4ccc(C(=O)NO)cc4C3)C2=O)nc2ccccc21 [Compound I-45, (S)—N-hydroxy-1′-((1-(2-methoxyethyl)-1H-benzo[d]imidazol-2-yl)methyl)-2′-oxo-3,4-dihydro-1H-spiro[naphthalene-2,3′-pyrrolidine]-7-carboxamide]
≤ 100	≤ 100	COCCn1c(N2CC[C@]3(CCc4ccc(C(=O)NO)cc4C3)C2=O)nc2ccccc21 [Compound I-34, (R)—N-hydroxy-1′-(1-(2-methoxyethyl)-1H-benzo[d]imidazol-2-yl)-2′-oxo-3,4-dihydro-1H-spiro[naphthalene-2,3′-pyrrolidine]-7-carboxamide]
100 to 500	≤ 100	O=C(NO)c1ccc2c(c1)OC1(CC2)CCN(C2CCCCC2)CC1 [II-6, 1′-cyclohexyl-N-hydroxyspiro[chroman-2,4′-piperidine]-7-carboxamide]
≤ 100	100 to 500	O=C(NO)c1ccc2c(c1)C[C@]1(CC2)CCN(c2ccc3nccn3c2)C1=O [Compound I-110, (R)—N-hydroxy-1′-(imidazo[1,2-a]pyridin-6-yl)-2′-oxo-3,4-dihydro-1H-spiro[naphthalene-2,3′-pyrrolidine]-7-carboxamide]
≤ 100	> 500	CC(C)CN1C[C@]2(CCc3ccc(C(=O)NO)cc3C2)CC1=O [Compound I-138, (S)—N-hydroxy-1′-isobutyl-5′-oxo-3,4-dihydro-1H-spiro[naphthalene-2,3′-pyrrolidine]-7-carboxamide]
≤ 100	–	O=C(NO)c1ccc2c(c1)C[C@@]1(CC2)CC(=O)N(C2CCCC2)C1 [Compound I-153, (S)-1′-cyclopentyl-N-hydroxy-5′-oxo-3,4-dihydro-1H-spiro[naphthalene-2,3′-pyrrolidine]-7-carboxamide]
≤ 100	–	O=C(NO)c1ccc2c(c1)C[C@]1(CC2)CC(=O)N(C2CCCC2)C1 [Compound I-152, (R)-1′-cyclopentyl-N-hydroxy-5′-oxo-3,4-dihydro-1H-spiro[naphthalene-2,3′-pyrrolidine]-7-carboxamide]
≤ 100	–	O=C(NO)c1ccc2c(c1)C[C@]1(CC2)CC(=O)N(C2CCC2)C1 [Compound I-150, (R)-1′-cyclobutyl-N-hydroxy-5′-oxo-3,4-dihydro-1H-spiro[naphthalene-2,3′-pyrrolidine]-7-carboxamide]
≤ 100	–	O=C(NO)c1ccc2c(c1)C[C@@]1(CC2)CC(=O)N(C2CCC2)C1 [Compound I-151, (S)-1′-cyclobutyl-N-hydroxy-5′-oxo-3,4-dihydro-1H-spiro[naphthalene-2,3′-pyrrolidine]-7-carboxamide]
